Measurements taken from patent US7524980B2, “Vitamin D3 lactam derivative” (Teijin Pharma Limited, priority 2003, dated 2009).

System: HL-60 cell
Test: Vitamin D3 antagonist effect: suppression of HL-60 cell differentiation (NBT-reducing activity) induced by 1α,25-dihydroxyvitamin D3
Type: cell-based
Conditions: simultaneous treatment with 1α,25-dihydroxyvitamin D3 1×10^−8 M; compound 1×10^−7 to 3×10^−6 M; 4 days; read-out: IC50 (suppression of NBT-reducing activity induction)
From the text: (1) HL-60 cell line which had been purchased from a cell bank (Japanese Cancer Research Resource Bank, Cell No: JCRB0085) was used. The cell line was stored as a frozen storage stock to prevent cell characteristic changes attributable to successive cultivations. Prior to the initiation of experiments, the cells were defrosted and successive culturing was stared. For the experiments, cells whose successive culturing was from one month to about a half year were used. The successive culturing was carried out by centrifugally collecting cells which were in the state of suspension culture, and diluting the collected cell concentrate with a fresh culture medium at a ratio of about 1/100 (1-2×10^4 cells/ml). As the culture medium, an RPMI-1640 medium containing 10% fetal bovine serum was used.
(2) The cells which were under successive culturing in the above process (1) were centrifugally collected, and they were dispersed in a culture medium at the cell concentration of 2×10^4 cells/ml. […]
(3) As the parameter of differentiation inducing effect on HL-60 cells, the induction of nitro blue tetrazolium (henceforth, NBT)-reducing activity was used. The NBT-reducing activity was determined according to the following procedure. […] After air drying, it was stained with Kernechrot, and the ratio of the positive cells of NBT reduction activity was determined under an optical microscope. […]

With `C=C1C(=CC=C2CCCC3(C)C2CCC3C(C)CC2CC(C)(O)C(=O)N2CCc2ccccc2)CC(O)CC1O` (stereo not drawn) [Compound No. 61a, 1α,25-dihydroxyvitamin D3-26,23-lactam-N-(2-phenethyl)] as the molecule, how does the IC50 read?
The IC50 was under 100 nM.
